Activity calls are given as the source filed them. No cut-off for these calls is given here. Where a SMILES comes first, the peptide text is derived from it. [ ]: non-standard residue; d: D form. βAla = NCCC(=O)O
What was measured:
[1] = system: Monoclonal antibody (mAb) 3E7; assay: Affinity of compound towards anti-beta-endorphin MAb(Clone 3-E7) using [3H]-[Leu5]-enkephalin as labeled ligand
[2] = system: Monoclonal antibody (mAb) 3E7; assay: Affinity towards anti-beta-endorphin MAb(Clone 3-E7) using [3H][Leu5]-enkephalin as labeled ligand
[3] = system: Monoclonal antibody (mAb) 3E7; assay: Affinity towards anti-beta-endorphin MAb(Clone 3-E7) using [3H][Leu5]-enkephalin as labeled ligand at 10 uM concentration; not active

SMILES: CSCC[C@H](NC(=O)[C@@H]1CCCN1C(=O)[C@H](C)NC(=O)CNC(=O)[C@@H](N)Cc1ccc(O)cc1)C(=O)O (H-YGAPM-OH)
- EC50 [1]: 52 nM

SMILES: CSCC[C@H](NC(=O)CNC(=O)CNC(=O)[C@@H](N)Cc1ccc(O)cc1)C(=O)N[C@H](C(=O)O)C(C)C (H-YGGMV-OH)
- IC50 [2]: 8780 nM
- Activity [3]: inactive

SMILES: C[C@H](NC(=O)[C@H](Cc1ccccc1)NC(=O)CNC(=O)CNC(=O)[C@@H](N)Cc1ccc(O)cc1)C(=O)O (H-YGGFA-OH)
- IC50 [2]: 32.9 nM
- Activity [3]: inactive

SMILES: C[C@@H](O)[C@H](NC(=O)[C@H](Cc1ccccc1)NC(=O)CNC(=O)CNC(=O)[C@@H](N)Cc1ccc(O)cc1)C(=O)O (H-YGGFT-OH)
- IC50 [2]: 36.9 nM
- Activity [3]: inactive

SMILES: CC(C)C[C@H](NC(=O)CNC(=O)CNC(=O)[C@@H](N)Cc1ccc(O)cc1)C(=O)N[C@@H](CO)C(=O)O (H-YGGLS-OH)
- IC50 [2]: 726 nM
- Activity [3]: inactive

SMILES: CC(C)C[C@H](NC(=O)[C@H](C)NC(=O)CNC(=O)[C@@H](N)Cc1ccc(O)cc1)C(=O)N[C@@H](CCC(N)=O)C(=O)O (H-YGALQ-OH)
- IC50 [2]: 1980 nM
- Activity [3]: inactive

SMILES: C[C@@H](O)[C@H](NC(=O)[C@H](Cc1ccccc1)NC(=O)CNC(=O)CNC(=O)[C@@H](N)Cc1ccc(O)cc1)C(=O)NCCC(N)=O (H-YGGFT[βAla]-NH2)
- IC50 [2]: 43.3 nM

SMILES: CSCC[C@H](NC(=O)CNC(=O)CNC(=O)[C@@H](N)Cc1ccc(O)cc1)C(=O)N[C@H](C(=O)NCCC(=O)O)C(C)C (H-YGGMV[βAla]-OH)
- IC50 [2]: 5140 nM

SMILES: C[C@H](NC(=O)[C@H](Cc1ccccc1)NC(=O)CNC(=O)CNC(=O)[C@@H](N)Cc1ccc(O)cc1)C(=O)NCCC(=O)O (H-YGGFA[βAla]-OH)
- IC50 [2]: 82.3 nM

SMILES: CC(C)C[C@H](NC(=O)CNC(=O)CNC(=O)[C@@H](N)Cc1ccc(O)cc1)C(=O)N[C@@H](CO)C(=O)NCCC(N)=O (H-YGGLS[βAla]-NH2)
- IC50 [2]: 1150 nM
